Measurements taken from US20250026766A1, “Thiazolopyridyl Amide Derivatives as DNA Polymerase Theta Inhibitors” (BeiGene, Ltd., priority 2022, published 2025).

Target: Pol Theta (1-894) (Homo sapiens (Human), UniProt O75417)
Test: Biochemical Pol Theta (1-894) ATPase IC50 assay (ADP-Glo, ssDNA substrate)
Details: ADP-Glo assay with ssDNA substrate, room temperature
Summary of the method: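 His-tagged human Pol Theta 1-894 from Sf9 baculovirus cells, 2× enzyme solution at 12.5 nM, assayed with ssDNA substrate at room temperature in 40 mM Tris pH 7.5, 20 mM MgCl2, 1 mM DTT, 0.01% BSA, 0.05% Tween-20.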

Chain of Pol Theta (1-894) (O75417 1-894): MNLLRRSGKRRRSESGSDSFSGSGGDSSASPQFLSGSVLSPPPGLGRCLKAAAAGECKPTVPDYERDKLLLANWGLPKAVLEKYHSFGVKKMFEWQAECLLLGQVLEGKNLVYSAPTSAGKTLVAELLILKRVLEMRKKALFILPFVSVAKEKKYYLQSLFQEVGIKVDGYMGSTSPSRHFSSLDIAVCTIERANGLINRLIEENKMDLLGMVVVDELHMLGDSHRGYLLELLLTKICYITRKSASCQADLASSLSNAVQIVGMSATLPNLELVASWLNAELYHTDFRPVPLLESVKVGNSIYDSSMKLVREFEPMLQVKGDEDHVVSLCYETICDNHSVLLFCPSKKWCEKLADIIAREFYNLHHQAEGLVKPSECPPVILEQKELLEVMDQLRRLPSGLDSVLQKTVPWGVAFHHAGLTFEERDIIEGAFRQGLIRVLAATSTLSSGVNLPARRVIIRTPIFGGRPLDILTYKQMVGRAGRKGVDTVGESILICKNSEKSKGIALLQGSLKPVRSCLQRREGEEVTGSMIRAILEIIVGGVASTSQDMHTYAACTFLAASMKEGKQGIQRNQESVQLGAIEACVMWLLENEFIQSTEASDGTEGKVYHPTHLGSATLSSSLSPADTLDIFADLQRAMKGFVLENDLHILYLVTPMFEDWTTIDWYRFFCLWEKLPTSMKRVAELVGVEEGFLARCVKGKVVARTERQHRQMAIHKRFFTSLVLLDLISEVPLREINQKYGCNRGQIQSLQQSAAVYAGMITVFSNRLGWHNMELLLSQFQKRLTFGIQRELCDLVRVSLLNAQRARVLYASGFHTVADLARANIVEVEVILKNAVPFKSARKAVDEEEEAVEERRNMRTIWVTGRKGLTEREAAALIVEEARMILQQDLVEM

COc1ccccc1-c1cnncc1C(=O)Nc1nc2ccc(-c3cc(C)c(NC(C)=O)cc3C)nc2s1 [Example 141, N-(5-(4-acetamido-2,5-dimethylphenyl)thiazolo[5,4-b]pyridin-2-yl)-5-(2-methoxyphenyl)pyridazine-4-carboxamide]
IC50: 3.1 nM

COc1ccccc1-c1cnncc1C(=O)Nc1nc2ccc(-c3ccc(NC(C)=O)c(F)c3)nc2s1 [Example 142, N-(5-(4-acetamido-3-fluorophenyl)thiazolo[5,4-b]pyridin-2-yl)-5-(2-methoxyphenyl)pyridazine-4-carboxamide]
IC50: 5.4 nM

COc1ccccc1-c1cnncc1C(=O)Nc1nc2ccc(-c3ccc(C#N)nc3)nc2s1 [Example 144, N-(5-(6-cyanopyridin-3-yl)thiazolo[5,4-b]pyridin-2-yl)-5-(2-methoxyphenyl)pyridazine-4-carboxamide]
IC50: 11 nM

COc1ccc(C#N)cc1-c1cc(C)ncc1C(=O)Nc1nc2ccc(-c3ccc(C(=O)N4CCC4)cc3)nc2s1 [Example 145, N-(5-(4-(azetidine-1-carbonyl)phenyl)thiazolo[5,4-b]pyridin-2-yl)-4-(5-cyano-2-methoxyphenyl)-6-methylnicotinamide]
IC50: 22 nM

COc1cccc(Cl)c1-c1cc(C)ncc1C(=O)Nc1nc2ccc(-c3ccc(C#N)cc3)nc2s1 [Example 146, 4-(2-chloro-6-methoxyphenyl)-N-(5-(4-cyanophenyl)thiazolo[5,4-b]pyridin-2-yl)-6-methylnicotinamide]
IC50: 22 nM

Cc1cc(-c2cc(C#N)c(=O)n(C)c2)c(C(=O)Nc2nc3ccc(-c4ccc(C#N)cc4)nc3s2)cn1 [Example 147, 5-cyano-N-(5-(4-cyanophenyl)thiazolo[5,4-b]pyridin-2-yl)-1,6′-dimethyl-6-oxo-1,6-dihydro-[3,4′-bipyridine]-3′-carboxamide]
IC50: 53 nM

COc1ccccc1-c1cnncc1C(=O)Nc1nc2ccc(-c3c(C)cc(C#N)cc3C)nc2s1 [Example 148, N-(5-(4-cyano-2,6-dimethylphenyl)thiazolo[5,4-b]pyridin-2-yl)-5-(2-methoxyphenyl)pyridazine-4-carboxamide]
IC50: 8.4 nM

COc1ccccc1-c1cnncc1C(=O)Nc1nc2ccc(-c3ccc(N4COCC4=O)cc3)nc2s1 [Example 149, 5-(2-methoxyphenyl)-N-(5-(4-(4-oxooxazolidin-3-yl)phenyl)thiazolo[5,4-b]pyridin-2-yl)pyridazine-4-carboxamide]
IC50: 18 nM

COc1ccccc1-c1cnncc1C(=O)Nc1nc2ccc(-c3c(C)cc(Cl)cc3Cl)nc2s1 [Example 150, N-(5-(2,4-dichloro-6-methylphenyl)thiazolo[5,4-b]pyridin-2-yl)-5-(2-methoxyphenyl)pyridazine-4-carboxamide]
IC50: 43 nM

COc1ccc(C#N)cc1-c1cc(C)ncc1C(=O)Nc1nc2ccc(-c3ccc(C(=O)N4CCC4)c(C)c3)nc2s1 [Example 151, N-(5-(4-(azetidine-1-carbonyl)-3-methylphenyl)thiazolo[5,4-b]pyridin-2-yl)-4-(5-cyano-2-methoxyphenyl)-6-methylnicotinamide]
IC50: 73 nM

COc1ccccc1-c1cnncc1C(=O)Nc1nc2ccc(Oc3ccc(C#N)cc3)nc2s1 [Example 152, N-(5-(4-cyanophenoxy)thiazolo[5,4-b]pyridin-2-yl)-5-(2-methoxyphenyl)pyridazine-4-carboxamide]
IC50: 21 nM

COc1cccc(C#N)c1-c1cc(C)ncc1C(=O)Nc1nc2ccc(-c3ccc(C#N)cc3)nc2s1 [Example 153, 4-(2-cyano-6-methoxyphenyl)-N-(5-(4-cyanophenyl)thiazolo[5,4-b]pyridin-2-yl)-6-methylnicotinamide]
IC50: 57 nM

COc1cc(Cl)ccc1Oc1ccc2nc(NC(=O)c3cnncc3-c3ccccc3OC)sc2n1 [Example 154, N-(5-(4-chloro-2-methoxyphenoxy)thiazolo[5,4-b]pyridin-2-yl)-5-(2-methoxyphenyl)pyridazine-4-carboxamide]
IC50: 60 nM

COc1ccccc1-c1cnncc1C(=O)Nc1nc2ccc(Oc3ccc(Cl)cc3F)nc2s1 [Example 155, N-(5-(4-chloro-2-fluorophenoxy)thiazolo[5,4-b]pyridin-2-yl)-5-(2-methoxyphenyl)pyridazine-4-carboxamide]
IC50: 73 nM

COc1ccc([N+](=O)[O-])cc1-c1ccncc1C(=O)Nc1nc2ccc(-c3ccc(C#N)cc3)nc2s1 [Example 156, N-(5-(4-cyanophenyl)thiazolo[5,4-b]pyridin-2-yl)-4-(2-methoxy-5-nitrophenyl)nicotinamide]
IC50: 14 nM

Cc1cc(-c2cc(S(C)(=O)=O)ccc2C2CC2)c(C(=O)Nc2nc3ccc(-c4ccc(C#N)cc4)nc3s2)cn1 [Example 157, N-(5-(4-cyanophenyl)thiazolo[5,4-b]pyridin-2-yl)-4-(2-cyclopropyl-5-(methylsulfonyl)phenyl)-6-methylnicotinamide]
IC50: 70 nM

COc1ccccc1-c1cnncc1C(=O)Nc1nc2ccc(-c3ccc(C#N)cn3)nc2s1 [Example 158, N-(5-(5-cyanopyridin-2-yl)thiazolo[5,4-b]pyridin-2-yl)-5-(2-methoxyphenyl)pyridazine-4-carboxamide]
IC50: 8.2 nM

COc1ccc(C#N)cc1-c1cc(C)ncc1C(=O)Nc1nc2ccc(-c3ccc(C#N)cn3)nc2s1 [Example 159, 4-(5-cyano-2-methoxyphenyl)-N-(5-(5-cyanopyridin-2-yl)thiazolo[5,4-b]pyridin-2-yl)-6-methylnicotinamide]
IC50: 5 nM

COc1ccccc1-c1cnncc1C(=O)Nc1nc2ccc(Oc3ccc(S(C)(=O)=O)cc3)nc2s1 [Example 160, 5-(2-methoxyphenyl)-N-(5-(4-(methylsulfonyl)phenoxy)thiazolo[5,4-b]pyridin-2-yl)pyridazine-4-carboxamide]
IC50: 63 nM

COc1cc(-c2ccc3nc(NC(=O)c4cnc(C)cc4-c4cc(C#N)ccc4OC)sc3n2)ccc1C#N [Example 161, 4-(5-cyano-2-methoxyphenyl)-N-(5-(4-cyano-3-methoxyphenyl)thiazolo[5,4-b]pyridin-2-yl)-6-methylnicotinamide]
IC50: 36 nM

COc1ccccc1-c1cnncc1C(=O)Nc1nc2ccc(CCc3ccc(Cl)cn3)nc2s1 [Example 162, N-(5-(2-(5-chloropyridin-2-yl)ethyl)thiazolo[5,4-b]pyridin-2-yl)-5-(2-methoxyphenyl)pyridazine-4-carboxamide]
IC50: 29 nM

COc1ccc(C#N)cc1-c1cc(C)ncc1C(=O)Nc1nc2ccc(-c3ccc(N4C(=O)COC4=O)c(C)c3)nc2s1 [Example 163, 4-(5-cyano-2-methoxyphenyl)-N-(5-(4-(2,4-dioxooxazolidin-3-yl)-3-methylphenyl)thiazolo[5,4-b]pyridin-2-yl)-6-methylnicotinamide]
IC50: 28 nM

COc1ccc(C#N)cc1-c1cc(C)ncc1C(=O)Nc1nc2ccc(-c3ccc(N4CCCC4=O)nc3)nc2s1 [Example 164, 4-(5-cyano-2-methoxyphenyl)-6-methyl-N-(5-(6-(2-oxopyrrolidin-1-yl)pyridin-3-yl)thiazolo[5,4-b]pyridin-2-yl)nicotinamide]
IC50: 37 nM

COc1ccccc1-c1cnncc1C(=O)Nc1nc2ccc(-c3ccc(NC(C)=O)c(C)c3)nc2s1 [Example 165, N-(5-(4-acetamido-3-methylphenyl)thiazolo[5,4-b]pyridin-2-yl)-5-(2-methoxyphenyl)pyridazine-4-carboxamide]
IC50: 8.9 nM

COc1ccc(C#N)cc1-c1cc(C)ncc1C(=O)Nc1nc2ccc(-c3ccc(C#N)c(C)c3)nc2s1 [Example 166, 4-(5-cyano-2-methoxyphenyl)-N-(5-(4-cyano-3-methylphenyl)thiazolo[5,4-b]pyridin-2-yl)-6-methylnicotinamide]
IC50: 13 nM

Cc1cc(-c2cc(C#N)ccc2C2CC2)c(C(=O)Nc2nc3ccc(-c4ccc(C#N)cc4)nc3s2)cn1 [Example 167, 4-(5-cyano-2-cyclopropylphenyl)-N-(5-(4-cyanophenyl)thiazolo[5,4-b]pyridin-2-yl)-6-methylnicotinamide]
IC50: 15 nM

COc1ccc(C#N)cc1-c1cc(C)ncc1C(=O)Nc1nc2ccc(-c3ccc(CC#N)cn3)nc2s1 [Example 168, 4-(5-cyano-2-methoxyphenyl)-N-(5-(5-(cyanomethyl)pyridin-2-yl)thiazolo[5,4-b]pyridin-2-yl)-6-methylnicotinamide]
IC50: 4.4 nM

COc1ccc(C#N)cc1-c1cc(C)ncc1C(=O)Nc1nc2ccc(-c3ccc(C#N)cc3C)nc2s1 [Example 169, 4-(5-cyano-2-methoxyphenyl)-N-(5-(4-cyano-2-methylphenyl)thiazolo[5,4-b]pyridin-2-yl)-6-methylnicotinamide]
IC50: 7.5 nM

COc1ccc(C#N)cc1-c1cc(C)ncc1C(=O)Nc1nc2ccc(-c3ccc(OC4CNC4)cc3)nc2s1 [Example 170, N-(5-(4-(azetidin-3-yloxy)phenyl)thiazolo[5,4-b]pyridin-2-yl)-4-(5-cyano-2-methoxyphenyl)-6-methylnicotinamide]
IC50: 26 nM

COc1ccc(C#N)cc1-c1cc(C)ncc1C(=O)Nc1nc2ccc(-c3ccc(CC#N)c(C)c3)nc2s1 [Example 171, 4-(5-cyano-2-methoxyphenyl)-N-(5-(4-(cyanomethyl)-3-methylphenyl)thiazolo[5,4-b]pyridin-2-yl)-6-methylnicotinamide]
IC50: 13 nM

COc1ccc(C#N)cc1-c1cc(C)ncc1C(=O)Nc1nc2ccc(-c3ccc(CC#N)cc3C)nc2s1 [Example 172, 4-(5-cyano-2-methoxyphenyl)-N-(5-(4-(cyanomethyl)-2-methylphenyl)thiazolo[5,4-b]pyridin-2-yl)-6-methylnicotinamide]
IC50: 10 nM

Cc1cc(-c2cc(C#N)c(=O)n(C)c2C)c(C(=O)Nc2nc3ccc(-c4ccc(C#N)cc4)nc3s2)cn1 [Example 173, 5-cyano-N-(5-(4-cyanophenyl)thiazolo[5,4-b]pyridin-2-yl)-1,2,6′-trimethyl-6-oxo-1,6-dihydro-[3,4′-bipyridine]-3′-carboxamide]
IC50: 26 nM
